In brackets after ≈: the same amount, converted by molar mass. Entries after “also recorded” stand apart in the source; their conditions may differ. Square brackets hold non-standard residues; d marks the D form. Ends that are not written are not given here. Peptide text beside a SMILES is read from it.
Experiments:
[1] = Peptide hydrophobicity by RP-HPLC retention; type: physicochemical; conditions: 80° C.; for change in hydrophobicity (RP-HPLC retention) relative to PVL: polar face substitution
Method: Peptide Synthesis and Purification—Syntheses of the peptides were carried out by solid-phase peptide synthesis using t-butyloxycarbonyl chemistry and MBHA (4-methylbenzhydrylamine) resin (0.97 mmol/g), followed by cleavage of the peptide from the resin as described previously (117-119). However, it is understood in the art that there are other suitable instruments and methods for automated or manual peptide synthesis that could be employed to produce the peptides described herein. Peptide purification was performed by reversed-phase high-performance liquid chromatography (RP-HPLC) on a Zorbax 300 SB-C8 column (250×9.4 mm I.D.; 6.5 μm particle size, 300 Å pore size; Agilent Technologies, Little Falls, Del.) with a linear AB gradient (0.1% acetonitrile/min) at a flow rate of 2 mL/min, where eluent A was 0.2% aqueous trifluoroacetic acid (TFA), pH 2, and eluent B was 0.2% TFA in acetonitrile, where the shallow 0.1% acetonitrile/min gradient started 12% below the acetonitrile concentration required to elute the peptide on injection of analytical sample using a gradient of 1% acetonitrile/min (113). The purity of the peptides was verified by analytical RP-HPLC as described below and further characterized by mass spectrometry and amino acid analysis. Crude and purified peptides were analyzed on an Agilent 1100 series liquid chromatograph. Runs were performed on a Zorbax 300 SB-C8 column (150×2.1 mm I.D.; 5 μm particle size, 300 Å pore size) from Agilent Technologies using a linear AB gradient (1% acetonitrile/min) and a flow rate of 0.25 mL/min, where eluent A was 0.2% aqueous TFA, pH 2, and eluent B was 0.2% TFA in acetonitrile.
Analytical RP-HPLC of Peptides—Peptides were analyzed on an Agilent 1100 series liquid chromatograph (Little Falls, Del.). Runs were performed on a Zorbax 300 SB-C8 column (150×2.1 mm I.D.; 5 μm particle size, 300 Å pore size) from Agilent Technologies using linear AB gradient (1% acetonitrile/min) and a flow rate of 0.25 ml/min, where solvent A was 0.05% aqueous TFA, pH 2 and solvent B was 0.05% TFA in acetonitrile. Temperature profiling analyses were performed in 3° C. increments, from 5° C. to 80° C.

Gram-negative bacteria = experiment: Antibacterial activity (MIC), microtiter dilution; type: cell-based; conditions: for MIC: against Gram-negative bacteria
Method: MICs were determined by a standard microtiter dilution method in Mueller Hinton Broth (MHB). Serial dilutions of the 10× compound were added to the microtiter plates in a volume of 10 μL followed by 90 μL of bacteria for an inoculum of 5×10^5 colony-forming units (CFU)/mL. The plates were incubated at 37° C. for 24 h, and the MICs were determined as the lowest peptide concentration that inhibited growth. […]
Alternatively; minimal inhibitory concentrations were determined using a standard microtiter dilution method in a Mueller-Hinton (MH) medium. Briefly, cells were grown overnight at 37° C. in MH broth and diluted in the same medium. Serial dilutions of the peptides were added to the microtiter plates in a volume of 100 μl followed by 10 μl of bacteria for an initial cell concentration of 1×10^5 CFU/ml. Plates were incubated at 37° C. for 24 hours and MICs determined as the lowest peptide concentration that inhibited growth.

human erythrocytes = experiment: Hemolytic activity (MHC), Protocol A; type: cell-based
Method: Hemoglobin release was determined spectrophotometrically at 562 nm.
In some experiments the hemolytic titer was determined as the highest 2-fold dilution of peptide that caused hemoglobin release.

Gram-positive bacteria = conditions: gram-positive bacteria, geometric mean MIC

## NSL: V681 analog, L-Ser at position 13 (non-polar face) (KWKSFLKTFKSASKTVLHTALKAISS)
[1]; non-polar face substitution
  change in hydrophobicity (RP-HPLC retention) relative to NVL: -8.21 min

## CC[C@H](C)[C@H](NC(=O)[C@H](C)NC(=O)[C@H](CCCCN)NC(=O)[C@H](CC(C)C)NC(=O)[C@H](C)NC(=O)[C@@H](NC(=O)[C@H](Cc1cnc[nH]1)NC(=O)[C@H](CC(C)C)NC(=O)[C@@H](NC(=O)[C@@H](NC(=O)[C@H](CCCCN)NC(=O)[C@H](CCCCN)NC(=O)[C@H](C)NC(=O)[C@H](CO)NC(=O)[C@H](CCCCN)NC(=O)[C@H](Cc1ccccc1)NC(=O)[C@@H](NC(=O)[C@H](CCCCN)NC(=O)[C@H](CC(C)C)NC(=O)[C@H](Cc1ccccc1)NC(=O)[C@H](CO)NC(=O)[C@H](CCCCN)NC(=O)[C@H](Cc1c[nH]c2ccccc12)NC(=O)[C@H](CCCCN)NC(C)=O)[C@@H](C)O)[C@@H](C)O)C(C)C)[C@@H](C)O)C(=O)N[C@@H](CO)C(=O)N[C@@H](CO)C(N)=O [NKL]
Gram-negative bacteria
  MIC: 3.1 µg/mL (≈ 1.04 µM)
Human erythrocytes
  fold decrease in hemolytic activity relative to V681: > 32 fold
Human erythrocytes; human erythrocytes
  minimal hemolytic concentration (MHC): undetectable level; also recorded: no detectable hemolytic activity

## Ac-KWKSFLKTFKSALKTVLHTALKAISS-NH2 [NLL]
Gram-negative bacteria
  MIC: 12.7 µg/mL
Human erythrocytes; red cells of human, 12 h
  minimal hemolytic concentration (MHC): 7.8 µg/mL

## PKD: V681 analog, D-Lys at position 11 (KWKSFLKTFK[dK]AVKTVLHTALKAISS-NH2)
Gram-negative bacteria; geometric mean of 6 gram-negative strains
  improvement on the average MIC value compared to V681: 3.4 fold

## Ac-KWKSFLKTFKSAAKTVLHTALKAISS-NH2 [NAL]
Human erythrocytes; red cells of human, 12 h
  minimal hemolytic concentration (MHC): 31.2 µg/mL

## CC[C@H](C)[C@H](NC(=O)[C@H](C)NC(=O)[C@H](CCCCN)NC(=O)[C@H](CC(C)C)NC(=O)[C@H](C)NC(=O)[C@@H](NC(=O)[C@H](Cc1c[nH]cn1)NC(=O)[C@H](CC(C)C)NC(=O)[C@@H](NC(=O)[C@@H](NC(=O)[C@H](CCCCN)NC(=O)[C@@H](NC(=O)[C@H](C)NC(=O)[C@@H](CO)NC(=O)[C@H](CCCCN)NC(=O)[C@H](Cc1ccccc1)NC(=O)[C@@H](NC(=O)[C@H](CCCCN)NC(=O)[C@H](CC(C)C)NC(=O)[C@H](Cc1ccccc1)NC(=O)[C@H](CO)NC(=O)[C@H](CCCCN)NC(=O)[C@H](Cc1c[nH]c2ccccc12)NC(=O)[C@H](CCCCN)NC(C)=O)[C@@H](C)O)C(C)C)[C@@H](C)O)C(C)C)[C@@H](C)O)C(=O)N[C@@H](CO)C(=O)N[C@@H](CO)C(N)=O [PSD] (HELM PEPTIDE1{[ac].K.W.K.S.F.L.K.T.F.K.[dS].A.V.K.T.V.L.H.T.A.L.K.A.I.S.S.[am]}$$$$V2.0; N-terminus and C-terminus assumed)
Gram-positive bacteria
  improvement in antimicrobial activity compared to V681: 2.7 fold

## CC[C@H](C)[C@H](NC(=O)[C@H](C)NC(=O)[C@H](CCCCN)NC(=O)[C@H](CC(C)C)NC(=O)[C@H](C)NC(=O)[C@@H](NC(=O)[C@H](Cc1c[nH]cn1)NC(=O)[C@H](CC(C)C)NC(=O)[C@@H](NC(=O)[C@@H](NC(=O)[C@H](CCCCN)NC(=O)[C@@H](NC(=O)[C@H](C)NC(=O)[C@H](NC(=O)[C@H](CCCCN)NC(=O)[C@H](Cc1ccccc1)NC(=O)[C@@H](NC(=O)[C@H](CCCCN)NC(=O)[C@H](CC(C)C)NC(=O)[C@H](Cc1ccccc1)NC(=O)[C@H](CO)NC(=O)[C@H](CCCCN)NC(=O)[C@H](Cc1c[nH]c2ccccc12)NC(=O)[C@H](CCCCN)NC(C)=O)[C@@H](C)O)C(C)C)C(C)C)[C@@H](C)O)C(C)C)[C@@H](C)O)C(=O)N[C@@H](CO)C(=O)N[C@@H](CO)C(N)=O [PVD] (HELM PEPTIDE1{[ac].K.W.K.S.F.L.K.T.F.K.[dV].A.V.K.T.V.L.H.T.A.L.K.A.I.S.S.[am]}$$$$V2.0)
Human erythrocytes
  fold decrease in hemolytic activity relative to L-diastereomer: 16 fold
Human erythrocytes; red cells of human, 12 h
  minimal hemolytic concentration (MHC): 125 µg/mL

## Ac-KWKSFLKTFKVAVKTVLHTALKAISS-NH2 [PVL]
Human erythrocytes; red cells of human, 12 h
  minimal hemolytic concentration (MHC): 7.8 µg/mL

## PAL: V681 analog, L-Ala at position 11 (polar face) (KWKSFLKTFKAAVKTVLHTALKAISS)
[1]
  change in hydrophobicity (RP-HPLC retention) relative to PVL: +0.45 min

## CC[C@H](C)[C@H](NC(=O)[C@H](C)NC(=O)[C@H](CCCCN)NC(=O)[C@H](CC(C)C)NC(=O)[C@H](C)NC(=O)[C@@H](NC(=O)[C@H](Cc1c[nH]cn1)NC(=O)[C@H](CC(C)C)NC(=O)[C@@H](NC(=O)[C@@H](NC(=O)[C@H](CCCCN)NC(=O)[C@@H](C)NC(=O)[C@H](C)NC(=O)[C@H](CO)NC(=O)[C@H](CCCCN)NC(=O)[C@H](Cc1ccccc1)NC(=O)[C@@H](NC(=O)[C@H](CCCCN)NC(=O)[C@H](CC(C)C)NC(=O)[C@H](Cc1ccccc1)NC(=O)[C@H](CO)NC(=O)[C@H](CCCCN)NC(=O)[C@H](Cc1c[nH]c2ccccc12)NC(=O)[C@H](CCCCN)NC(C)=O)[C@@H](C)O)[C@@H](C)O)C(C)C)[C@@H](C)O)C(=O)N[C@@H](CO)C(=O)N[C@@H](CO)C(N)=O [NAD] (HELM PEPTIDE1{[ac].K.W.K.S.F.L.K.T.F.K.S.A.[dA].K.T.V.L.H.T.A.L.K.A.I.S.S.[am]}$$$$V2.0)
Human erythrocytes
  fold decrease in hemolytic activity relative to L-diastereomer: 8 fold
Human erythrocytes; red cells of human, 12 h
  minimal hemolytic concentration (MHC): 250 µg/mL

## PKL: V681 analog, L-Lys at position 11 (polar face) (KWKSFLKTFKKAVKTVLHTALKAISS)
[1]
  change in hydrophobicity (RP-HPLC retention) relative to PVL: -2.29 min

Reference: patent US20100099614A1, “Antimicrobial Peptides and Methods of Use” (priority 2008, published 2010)
